In patent publication US12115247B2, “Structured orodispersible films” (LTS LOHMANN THERAPIE-SYSTEME AG, priority 2017, dated 2024):

Experiment: Loading of porous orodispersible film with anthraquinone suspension (coating cycles)
Assay type: physicochemical
From the text: For these tests an anthraquinone suspension (x50=400 nm) was used. These contained, in addition to the anthraquinone, also HPC as stabiliser in a concentration of cHPC=0.25 (in relation to the total quantity of anthraquinone in the suspension). The concentration of the suspension was varied in a range of from 0.05 to 0.2, and the suspension was applied between one and five times to the film. The suspension was applied to the film surface via an application nozzle with a volume of […] at a rate of 220 mm/min. The film used for the tests was a film with cHPC=0.28, as described in Example 1. The loading with anthraquinone was determined for each of the obtained films.

## O=C1c2ccccc2C(=O)c2ccccc21 [anthraquinone]
Film cHPC=0.28, anthraquinone concentration of 0.2, five coating cycles
  anthraquinone loading: 4.9 mg/cm^2
Film cHPC=0.28, anthraquinone concentration of 0.2, five coating cycles, suspension also contains HPC stabiliser
  highest loading: 6.1 mg/cm^2
Per standard orodispersible film of 6 cm^2
  maximum active ingredient loading: approximately 30 mg
